Assay results reported in patent US20230295560A1, “SYNTHETIC ECOLOGIES FOR DRUG DISCOVERY” (priority 2021, published 2023).
Values after ≈ are worked out from the molar mass of the structure shown.

How the values were obtained:
Enterobacter species = settings: some Enterobacter species, after exposure to gradually increasing concentrations; cited from earlier work
E. coli BW25113 = test: Minimum inhibitory concentration (MIC) of DOX for E. coli BW25113 ancestor and end-point isolates; type: cell-based
Experimental: Experimental protocol. Five populations of E. coli were adapted to DOX in flasks to identify the selection gradient for adaptation to DOX. On the first day, six different colonies were used to inoculate control and five populations containing fresh media. The growth media for E. coli was Lysogeny broth (LB; 10 g/l tryptone, 5 g/l yeast extract, 5 g/l sodium chloride). The following day, each population was transferred to fresh media containing 1 μg/ml DOX with 100-fold dilutions. The fresh media containing desired DOX concentration was prepared by appropriate dilution of DOX stock solution. The stock solution was prepared by dissolving DOX (Tokyo Chemical Industry Co., LTD, Japan) in water, followed by filter sterilization through a 0.22 μm filter (Millex-GP, Millipore, Bedford, MA). The following day, each population was transferred to three tubes containing 1×, 1.5×, and 2× of the current DOX concentration. Hereafter, each population with the best growth was transferred into three new tubes while the control population was propagated in fresh media until twice the DOX clinical breakpoint (16 μg/ml) was reached. In a similar way, on the first day of serial transfer of E. coli to DOX in microdroplets, four to six different colonies were used to inoculate control and three to five populations containing fresh media. The following day, the growth media containing a starting size of ˜2.6×10^6 cells/ml was prepared for each population through appropriate dilution of overnight culture. Fluorinated oil (Novec 7500, 3M, St Paul, MN) with 1.5 w/w % surfactants (Pico-Surf 1™, Sphere Fluidics, Cambridge, UK) was the continuous phase while the growth media containing E. coli was the dispersed phase. These prepared continuous and dispersed phases were injected into four to six microfluidic chips using twelve-multi channel syringe pumps (New Era Pump Systems, Farmingdale, NY) with determined flow rates. More than 800 μl droplets for each population were collected in either a 1.5 ml microfuge tube or a 50 ml tube for the incubation at 37° C. After incubation for 24 h, these droplets were chemically broken with a demulsifier (1H, 1H, 2H, 2H-Perfluorooctanol, >97%, Alfa Aesar, Ward Hill, MA). After OD measurement, cells were propagated by dilution in fresh growth media containing higher DOX concentrations until a concentration of 16 μg/ml. Experiment images were captured using a bright-field inverted microscope (Eclipse Ti2, Nikon, Japan) with a mounted high-speed camera (Phantom V7.2).
At the end of the experiment, individual end-point isolates were isolated randomly by streaking the entire population onto non-selective, nutrient-rich agar plates. End point isolates are defined as randomly selected, independent colonies derived from an evolved population. Since evolved populations are diverse, each end point isolate could potentially have different genotypes. A minimum of three end-point isolates was subjected to whole genome sequencing from each experimental evolution study. In addition, total genomic DNA for each evolved population was isolated and subjected to metagenomic analysis to identify the allelic frequency in the final populations (Dataset S1-S6). The populations were sequenced to achieve at least 100× coverage and a threshold of 5% was used to identify mutations. Both serial transfer and microdroplet populations identified the well-known adaptive alleles marR, acrR, rpsJ and envZ^32-35 as well as the movement of an insertion element IS186 into the upstream regulatory region of the gene encoding the Lon protease (FIG. 17). […] Both methods clearly implicated regulation of the AcrAB-TolC as the fundamental driver for DOX resistance, but there were interesting differences in the evolutionary trajectories identified.

P. aeruginosa PAO1 = settings: cited from earlier work

Compound: benzalkonium chloride
- increase in minimum inhibitory concentration (Enterobacter species): 5-300 fold

Compound: C[C@H]1c2cccc(O)c2C(O)=C2C(=O)[C@]3(O)C(O)=C(C(N)=O)C(=O)[C@@H](N(C)C)[C@@H]3[C@@H](O)[C@@H]21 [DOX]
- MIC of DOX (E. coli BW25113; F (batch), end-point isolate 1-1): >16 µg/mL
- MIC of DOX (E. coli BW25113; F (batch), end-point isolate 1-2): 16 µg/mL
- MIC of DOX (E. coli BW25113; F (batch), end-point isolate 1-3): 16 µg/mL
- MIC of DOX (E. coli BW25113; F (batch), end-point isolate 2-1): 16 µg/mL
- MIC of DOX (E. coli BW25113; F (batch), end-point isolate 2-2): 16 µg/mL
- MIC of DOX (E. coli BW25113; F (batch), end-point isolate 2-3): >16 µg/mL
- MIC of DOX (E. coli BW25113; F (batch), end-point isolate 3-1): 16 µg/mL
- MIC of DOX (E. coli BW25113; F (batch), end-point isolate 3-2): 16 µg/mL
- MIC of DOX (E. coli BW25113; F (batch), end-point isolate 3-3): 16 µg/mL
- MIC of DOX (E. coli BW25113; F (batch), end-point isolate 4-1): 16 µg/mL
- MIC of DOX (E. coli BW25113; F (batch), end-point isolate 4-2): 16 µg/mL
- MIC of DOX (E. coli BW25113; F (batch), end-point isolate 4-3): >16 µg/mL
- MIC of DOX (E. coli BW25113; F (batch), end-point isolate 5-1): 16 µg/mL
- MIC of DOX (E. coli BW25113; F (batch), end-point isolate 5-2): >16 µg/mL
- MIC of DOX (E. coli BW25113; F (batch), end-point isolate 5-3): >16 µg/mL
- MIC of DOX (E. coli BW25113; F (batch), isolate C1 (no drug control)): 4 µg/mL
- MIC of DOX (E. coli BW25113; F (batch), isolate C2 (no drug control)): 4 µg/mL
- MIC of DOX (E. coli BW25113; F (batch), isolate C3 (no drug control)): 4 µg/mL
- MIC of DOX for the ancestor (E. coli BW25113; ancestor E. coli BW25113): 4 µg/mL
- MIC of DOX (E. coli BW25113; microemulsion D1, end-point isolate 1-1): 8 µg/mL
- MIC of DOX (E. coli BW25113; microemulsion D1, end-point isolate 1-2): 8 µg/mL
- MIC of DOX (E. coli BW25113; microemulsion D1, end-point isolate 1-3): 8 µg/mL
- MIC of DOX (E. coli BW25113; microemulsion D1, end-point isolate 2-1): 16 µg/mL
- MIC of DOX (E. coli BW25113; microemulsion D1, end-point isolate 2-2): 16 µg/mL
- MIC of DOX (E. coli BW25113; microemulsion D1, end-point isolate 2-3): 16 µg/mL
- MIC of DOX (E. coli BW25113; microemulsion D1, end-point isolate 3-1): 16 µg/mL
- MIC of DOX (E. coli BW25113; microemulsion D1, end-point isolate 3-2): 16 µg/mL
- MIC of DOX (E. coli BW25113; microemulsion D1, end-point isolate 3-3): 16 µg/mL
- MIC of DOX (E. coli BW25113; microemulsion D1, end-point isolate 4-1): 16 µg/mL
- MIC of DOX (E. coli BW25113; microemulsion D1, end-point isolate 4-2): >16 µg/mL
- MIC of DOX (E. coli BW25113; microemulsion D1, end-point isolate 4-3): 16 µg/mL
- MIC of DOX (E. coli BW25113; microemulsion D1, end-point isolate 5-1): 16 µg/mL
- MIC of DOX (E. coli BW25113; microemulsion D1, end-point isolate 5-2): 16 µg/mL
- MIC of DOX (E. coli BW25113; microemulsion D1, end-point isolate 5-3): 16 µg/mL
- MIC of DOX (E. coli BW25113; microemulsion D1, isolate C1 (no drug control)): 4 µg/mL
- MIC of DOX (E. coli BW25113; microemulsion D1, isolate C2 (no drug control)): 4 µg/mL
- MIC of DOX (E. coli BW25113; microemulsion D1, isolate C3 (no drug control)): 4 µg/mL
- MIC of DOX (E. coli BW25113; microemulsion D2, end-point isolate 1-1): 16 µg/mL
- MIC of DOX (E. coli BW25113; microemulsion D2, end-point isolate 1-2): 16 µg/mL
- MIC of DOX (E. coli BW25113; microemulsion D2, end-point isolate 1-3): 16 µg/mL
- MIC of DOX (E. coli BW25113; microemulsion D2, end-point isolate 2-1): 16 µg/mL
- MIC of DOX (E. coli BW25113; microemulsion D2, end-point isolate 2-2): 16 µg/mL
- MIC of DOX (E. coli BW25113; microemulsion D2, end-point isolate 2-3): 16 µg/mL
- MIC of DOX (E. coli BW25113; microemulsion D2, end-point isolate 3-1): 16 µg/mL
- MIC of DOX (E. coli BW25113; microemulsion D2, end-point isolate 3-2): 16 µg/mL
- MIC of DOX (E. coli BW25113; microemulsion D2, end-point isolate 3-3): 16 µg/mL
- MIC of DOX (E. coli BW25113; microemulsion D2, end-point isolate 4-1): 16 µg/mL
- MIC of DOX (E. coli BW25113; microemulsion D2, end-point isolate 4-2): 16 µg/mL
- MIC of DOX (E. coli BW25113; microemulsion D2, end-point isolate 4-3): 16 µg/mL
- MIC of DOX (E. coli BW25113; microemulsion D2, end-point isolate 5-1): 16 µg/mL
- MIC of DOX (E. coli BW25113; microemulsion D2, end-point isolate 5-2): 16 µg/mL
- MIC of DOX (E. coli BW25113; microemulsion D2, end-point isolate 5-3): 16 µg/mL
- MIC of DOX (E. coli BW25113; microemulsion D2, isolate C1 (no drug control)): 4 µg/mL
- MIC of DOX (E. coli BW25113; microemulsion D2, isolate C2 (no drug control)): 4 µg/mL
- MIC of DOX (E. coli BW25113; microemulsion D2, isolate C3 (no drug control)): 4 µg/mL
- MIC of DOX (E. coli BW25113; microemulsion D3, end-point isolate 1-1): 16 µg/mL
- MIC of DOX (E. coli BW25113; microemulsion D3, end-point isolate 1-2): 16 µg/mL
- MIC of DOX (E. coli BW25113; microemulsion D3, end-point isolate 1-3): 16 µg/mL
- MIC of DOX (E. coli BW25113; microemulsion D3, end-point isolate 2-1): 8 µg/mL
- MIC of DOX (E. coli BW25113; microemulsion D3, end-point isolate 2-2): 16 µg/mL
- MIC of DOX (E. coli BW25113; microemulsion D3, end-point isolate 2-3): 8 µg/mL
- MIC of DOX (E. coli BW25113; microemulsion D3, end-point isolate 3-1): 16 µg/mL
- MIC of DOX (E. coli BW25113; microemulsion D3, end-point isolate 3-2): 8 µg/mL
- MIC of DOX (E. coli BW25113; microemulsion D3, end-point isolate 3-3): 16 µg/mL
- MIC of DOX (E. coli BW25113; microemulsion D3, end-point isolate 4-1): 16 µg/mL
- MIC of DOX (E. coli BW25113; microemulsion D3, end-point isolate 4-2): 16 µg/mL
- MIC of DOX (E. coli BW25113; microemulsion D3, end-point isolate 4-3): 16 µg/mL
- MIC of DOX (E. coli BW25113; microemulsion D3, end-point isolate 5-1): 16 µg/mL
- MIC of DOX (E. coli BW25113; microemulsion D3, end-point isolate 5-2): 16 µg/mL
- MIC of DOX (E. coli BW25113; microemulsion D3, end-point isolate 5-3): 16 µg/mL
- MIC of DOX (E. coli BW25113; microemulsion D3, isolate C1 (no drug control)): 4 µg/mL
- MIC of DOX (E. coli BW25113; microemulsion D3, isolate C2 (no drug control)): 4 µg/mL
- MIC of DOX (E. coli BW25113; microemulsion D3, isolate C3 (no drug control)): 4 µg/mL
- MIC of DOX (E. coli BW25113; microemulsion D4, end-point isolate 4-1): 16 µg/mL
- MIC of DOX (E. coli BW25113; microemulsion D4, end-point isolate 4-2): 16 µg/mL
- MIC of DOX (E. coli BW25113; microemulsion D4, end-point isolate 4-3): 16 µg/mL
- MIC of DOX (E. coli BW25113; microemulsion D4, end-point isolate 5-1): 16 µg/mL
- MIC of DOX (E. coli BW25113; microemulsion D4, end-point isolate 5-2): 16 µg/mL
- MIC of DOX (E. coli BW25113; microemulsion D4, end-point isolate 5-3): 8 µg/mL
- MIC of DOX (E. coli BW25113; microemulsion D4, isolate C1 (no drug control)): 4 µg/mL
- MIC of DOX (E. coli BW25113; microemulsion D4, isolate C2 (no drug control)): 4 µg/mL
- MIC of DOX (E. coli BW25113; microemulsion D4, isolate C3 (no drug control)): 4 µg/mL
- MIC of DOX (E. coli BW25113; microemulsion D5, end-point isolate 1-1): 16 µg/mL
- MIC of DOX (E. coli BW25113; microemulsion D5, end-point isolate 1-2): >16 µg/mL
- MIC of DOX (E. coli BW25113; microemulsion D5, end-point isolate 1-3): 16 µg/mL
- MIC of DOX (E. coli BW25113; microemulsion D5, end-point isolate 2-1): >16 µg/mL
- MIC of DOX (E. coli BW25113; microemulsion D5, end-point isolate 2-2): 16 µg/mL
- MIC of DOX (E. coli BW25113; microemulsion D5, end-point isolate 2-3): 16 µg/mL
- MIC of DOX (E. coli BW25113; microemulsion D5, end-point isolate 3-1): >16 µg/mL
- MIC of DOX (E. coli BW25113; microemulsion D5, end-point isolate 3-2): 16 µg/mL
- MIC of DOX (E. coli BW25113; microemulsion D5, end-point isolate 3-3): >16 µg/mL
- MIC of DOX (E. coli BW25113; microemulsion D5, isolate C1 (no drug control)): 4 µg/mL
- MIC of DOX (E. coli BW25113; microemulsion D5, isolate C2 (no drug control)): 4 µg/mL
- MIC of DOX (E. coli BW25113; microemulsion D5, isolate C3 (no drug control)): 4 µg/mL

Compound: O=C(N[C@H](CO)[C@H](O)c1ccc([N+](=O)[O-])cc1)C(Cl)Cl [chloramphenicol]
- MIC (P. aeruginosa PAO1): 32 µg/mL (≈ 99 µM)
